Laboratory results reported in US10287301B2 (Achillion Pharmaceuticals, Inc., priority 2015, dated 2019).

biological target: Human Factor D (Homo sapiens (Human), UniProt P00746); experiment: Human Factor D Assay; assay type: biochemical; conditions: Table 3; Human Factor D 80 nM, substrate Z-L-Lys-SBzl; read-out: IC50 (Stars)
How it was run: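 First, compound at various concentrations is mixed with 80 nM (final) human serum Factor D in 50 mM Tris, 1M NaCl, pH 7.5 for 5 min at room temperature.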

Chain of Human Factor D (P00746 26-253): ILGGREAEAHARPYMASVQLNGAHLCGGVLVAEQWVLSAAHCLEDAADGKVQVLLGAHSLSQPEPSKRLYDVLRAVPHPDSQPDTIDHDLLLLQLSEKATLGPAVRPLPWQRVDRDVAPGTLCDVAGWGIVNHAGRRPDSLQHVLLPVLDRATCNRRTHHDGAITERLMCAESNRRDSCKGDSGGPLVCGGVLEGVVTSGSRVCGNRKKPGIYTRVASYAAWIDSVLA

| SMILES | IC50 |
| --- | --- |
| CC(=O)c1nn(CC(=O)N2C[C@H](F)C[C@H]2C(=O)Nc2nc(Br)ccc2C)c2ccc(-c3cnc(C)cn3)cc12 [Compound 467, (2S,4R)-1-(2-(3-Acetyl-5-(5-methylpyrazin-2-yl)-1H-indazol-1-yl)acetyl)-N-(6-bromo-3-methylpyridin-2-yl)-4-fluoropyrrolidine-2-carboxamide] | < 1000 nM |
| CC(=O)c1nn(CC(=O)N2C[C@H](F)C[C@H]2C(=O)Nc2nc(Br)ccc2C)c2ccc(-c3ccnc(C)n3)cc12 [Compound 468, (2S,4R)-1-(2-(3-Acetyl-5-(2-methylpyrimidin-4-yl)-1H-indazol-1-yl)acetyl)-N-(6-bromo-3-methylpyridin-2-yl)-4-fluoropyrrolidine-2-carboxamide] | < 1000 nM |
| CC(=O)c1nn(CC(=O)N2C[C@H](F)C[C@H]2c2nc(-c3cccc(Br)n3)c[nH]2)c2ccc(-c3cnc(C)nc3)cc12 [Compound 469, 2-(3-acetyl-5-(2-Methylpyrimidin-5-yl)-1H-indazol-1-yl)-1-((2S,4R)-2-(4-(6-bromopyridin-2-yl)-1H-imidazol-2-yl)-4-fluoropyrrolidin-1-yl)ethan-1-one] | < 1000 nM |
| Cc1cccc(NC(=O)[C@@H]2[C@H]3CC[C@H](C3)N2C(=O)Cn2cc(C(N)=O)c3cc(-c4cnc(C)nc4)ccc32)n1 [Compound 473, 1-(2-((1R,3S,4S)-3-(6-Methylpyridin-2-ylcarbamoyl)-2-azabicyclo[2.2.1]heptan-2-yl)-2-oxoethyl)-5-(2-methylpyrimidin-5-yl)-1H-indole-3-carboxamide] | > 10000 nM |
| CC(=O)c1nn(CC(=O)N2C[C@H](F)C[C@H]2C(=O)NCC(F)=C(C)C)c2ccc(-c3cnc(C)nc3)cc12 [Compound 474, (2S,4R)-1-(2-(3-acetyl-5-(2-methylpyrimidin-5-yl)-1H-indazol-1-yl)acetyl)-4-fluoro-N-(2-fluoro-3-methylbut-2-en-1-yl)pyrrolidine-2-carboxamide] | < 1000 nM |
| CC(=O)c1nn(CC(=O)N2C3CC[C@@H](C3)[C@H]2C(=O)Nc2cccc(Br)n2)c2ccc(-c3cnc(C)nc3)cc12 [Compound 475, (3S,4S)-2-(2-(3-Acetyl-5-(2-methylpyrimidin-5-yl)-1H-indazol-1-yl)acetyl)-N-(6-bromopyridin-2-yl)-2-azabicyclo[2.2.1]heptane-3-carboxamide] | < 1000 nM |
| CC(=O)c1nn(CC(=O)N2C[C@H](F)C[C@H]2C(=O)Nc2ccn(-c3ccc(F)cn3)n2)c2ccc(-c3cnc(C)nc3)cc12 [Compound 479, (2S,4R)-1-(2-(3-acetyl-5-(2-Methylpyrimidin-5-yl)-1H-indazol-1-yl)acetyl)-4-fluoro-N-(1-(5-fluoropyridin-2-yl)-1H-pyrazol-3-yl)pyrrolidine-2-carboxamide] | < 1000 nM |
| CC(=O)c1nn(CC(=O)N2[C@H](C(=O)Nc3cccc(Br)n3)C[C@@]3(C)C[C@@H]23)c2ccc(-c3cnc(N)nc3)cc12 [Compound 480, (1R,3S,5R)-2-(2-(3-Acetyl-5-(2-aminopyrimidin-5-yl)-1H-indazol-1-yl)acetyl)-N-(6-bromopyridin-2-yl)-5-methyl-2-azabicyclo[3.1.0]hexane-3-carboxamide] | < 1000 nM |
| CC(=O)c1cn(CC(=O)N2CC[C@H]2C(=O)Nc2cccc(C)n2)c2ccc(-c3cnc(C)nc3)cc12 [Compound 481, (S)-1-(2-(3-a=Acetyl-5-(2-methylpyrimidin-5-yl)-1H-indol-1-yl)acetyl)-N-(6-methylpyridin-2-yl)azetidine-2-carboxamide] | > 10000 nM |
| CC(=O)c1nn(CC(=O)N2[C@@H]3C[C@@H]3C[C@H]2C(=O)NCC(F)=C(C)C)c2ccc(-c3cnc(C)nc3)cc12 [Compound 482, (1R,3S,5R)-2-(2-(3-acetyl-5-(2-methylpyrimidin-5-yl)-1H-indazol-1-yl)acetyl)-N-(2-fluoro-3-methylbut-2-en-1-yl)-2-azabicyclo[3.1.0] hexane-3-carboxamide] | < 1000 nM |
